“And” between values parts separate entries of the source, which are not always exact repeats. Equal entries are not always repeated.
Tested on: TAA-induced cholestatic liver injury
Assay: TAA-induced mouse cholestatic liver injury (Example 2)
Type: in vivo, C57BL/6 mice
Experimental: A total of 18 male C57BL/6 mice were divided into three groups: blank group (n=6); model group (n=6); treatment group (n=6).
Celastrol was dissolved in a solvent to obtain a solution of celastrol at a concentration of 2 mg/mL, wherein the solvent consisted of 1% DMSO, 2% Tween, and 97% water (v:v:v). For intragastrical administration, the dosage of celastrol was 10 mg/kg·d. TAA was dissolved in 0.9% NaCl solution to prepare a NaCl solution of TAA at a concentration of […], and the dosage of TAA for intraperitoneal administration was 300 mg/kg.
The treatment group was administered intragastrically with the celastrol solution at a dosage of 10 mg/kg·d for 4 consecutive days. At the same time, the blank group and the model group were intragastrically administered with the same dosage of a solvent, wherein the solvent consisted of 1% DMSO, 2% Tween 80 and 97% water (v:v:v), and the solvent was administrated for 4 consecutive days.
On the 4th day, TAA model was established. 1 Hour after administration with the solvent or celastrol solution, the mice of the treatment group and the model group were respectively intraperitoneally injected with the NaCl solution of TAA at a dosage of 300 mg/kg to induce cholestatic liver injury. 24 Hours after treatment with TAA, the mice were sacrificed by CO2 anesthesia, and plasma samples and liver samples were collected. The eyeballs of the mice were taken for blood collection. The plasma samples were placed on ice for 1-2 hours, centrifuged at 4000 g for 5 minutes at 4° C., and the supernatant plasma samples were taken to determine the plasma biochemical indicators, the levels of ALT, AST and ALP.
At the same time, plasma samples were prepared: 10 μL of plasma sample was taken, mixed with 190 μL of 67% acetonitrile (containing 5 μM internal standard chlorpropamide), centrifuged at 18000 g for 20 minutes at 4° C., and the supernatant was taken for sample injection.
Liver samples were prepared: 100 mg liver samples were mixed well with 1 mL of 50% acetonitrile (containing 5 μM internal standard chlorpropamide), shaken for 20 minutes at room temperature, and then centrifuged at 18000 g for 20 minutes at 4° C. Thereafter, 200 μL of the supernatant was taken and added with 200 μl of pure acetonitrile, vortexed for 1 minute, centrifuged at 18000 g for 20 minutes at 4° C., and the supernatant was taken for sample injection. The liquid chromatography conditions were as follows: the injection volume was 5 μL; the temperature of column was 45° C.; the flow rate of mobile phase was 0.3 mL/min; the gradient elution was that acetonitrile concentration changed from 2% to 98% during 16 minutes of operation, wherein the mobile phase (water/acetonitrile solution) contained 0.01% formic acid. The elution procedure was as follows: during 0-12th minute, the acetonitrile concentration changed from 2% to 98% at a constant rate; 12-14th minute, the acetonitrile concentration was maintained at 98%; 14-14.1th minute, the acetonitrile concentration changed from 98% to 2%; 14.1-16th minute, the acetonitrile concentration was maintained at 2%. Mass spectrometry conditions were as follows: the temperature of dry gas was 350° C., the pressure of nebulizer was 35 psi, and the voltage of capillary was 3.5 kV.
Part of the collected mouse liver tissue was fixed overnight in formalin and tissue sections were stained with hematoxylin and eosin (H&E).

[1] = celastrol 10 mg/kg·d intragastric 4 days, TAA 300 mg/kg i.p. on day 4, 24 h after TAA, n=6
[2] = celastrol 10 mg/kg·d intragastric 4 days, TAA 300 mg/kg i.p., 24 h after TAA, n=6

Structure (SMILES): CC1=C(O)C(=O)C=C2C1=CC=C1[C@@]2(C)CC[C@@]2(C)[C@@H]3C[C@](C)(C(=O)O)CC[C@]3(C)CC[C@]12C [celastrol, Celastrol]
- Liver weight of mouse when sacrificed [1]: 1.55 g and 1.55 ± 0.21 g
- Liver weight/body weight [1]: 6.48% and 6.48 ± 0.93%
- ALP in mouse plasma [2]: 50.1 ± 7.8 U/l
- ALT in mouse plasma [2]: 333.3 ± 211.3 U/l
- AST in mouse plasma [2]: 920.3 ± 433.4 U/l
- H&E staining: area of liver necrosis in liver tissue (celastrol 10 mg/kg·d intragastric, TAA model, FIG. 2C): significantly reduced
- Levels of bile acids in plasma vs TAA model group (ω-MCA, DCA, TβMCA/TαMCA, TCA, THDCA/TUDCA, TCDCA, TDCA, celastrol 10 mg/kg·d, FIG. 2D): significantly lower
- Levels of bile acids in liver vs TAA model group (ω-MCA, β-MCA, CA, DCA, TβMCA/TαMCA, TCA, GCA, TLCA, celastrol 10 mg/kg·d, FIG. 2E): significantly lower

Reference: patent US11607417B2, “Uses of celastrol in preventing and/or treating cholestatic liver disease and liver fibrosis” (KUNMING INSTITUTE OF BOTANY, THE CHINESE ACADEMY OF SCIENCES, priority 2017, dated 2023)
